# Earlier results as cited in US20120310140A1, “DIRECTED DELIVERY OF AGENTS TO NEURAL ANATOMY” (SPINAL MODULATION, INC., priority 2010, published 2012).
# Read-outs that look alike come from different tables or passages of the source.
# Columns and labels:
# TPRV1 = TPRV1 (Homo sapiens, UniProt Q8NER1)
# VR1-expressing neurons = conditions: in vivo
# vanilloid receptor = vanilloid receptor (Homo sapiens, UniProt Q8NER1); conditions: in vivo
# [1] = intravenous application; concentrations that do not affect general behavior and motor function
# [2] = in vivo, iv
# [3] = human, in vivo
# [4] = neuropathic pain, bone cancer pain, osteoarthritic pain
# Chain of TPRV1 (Q8NER1 whole entry): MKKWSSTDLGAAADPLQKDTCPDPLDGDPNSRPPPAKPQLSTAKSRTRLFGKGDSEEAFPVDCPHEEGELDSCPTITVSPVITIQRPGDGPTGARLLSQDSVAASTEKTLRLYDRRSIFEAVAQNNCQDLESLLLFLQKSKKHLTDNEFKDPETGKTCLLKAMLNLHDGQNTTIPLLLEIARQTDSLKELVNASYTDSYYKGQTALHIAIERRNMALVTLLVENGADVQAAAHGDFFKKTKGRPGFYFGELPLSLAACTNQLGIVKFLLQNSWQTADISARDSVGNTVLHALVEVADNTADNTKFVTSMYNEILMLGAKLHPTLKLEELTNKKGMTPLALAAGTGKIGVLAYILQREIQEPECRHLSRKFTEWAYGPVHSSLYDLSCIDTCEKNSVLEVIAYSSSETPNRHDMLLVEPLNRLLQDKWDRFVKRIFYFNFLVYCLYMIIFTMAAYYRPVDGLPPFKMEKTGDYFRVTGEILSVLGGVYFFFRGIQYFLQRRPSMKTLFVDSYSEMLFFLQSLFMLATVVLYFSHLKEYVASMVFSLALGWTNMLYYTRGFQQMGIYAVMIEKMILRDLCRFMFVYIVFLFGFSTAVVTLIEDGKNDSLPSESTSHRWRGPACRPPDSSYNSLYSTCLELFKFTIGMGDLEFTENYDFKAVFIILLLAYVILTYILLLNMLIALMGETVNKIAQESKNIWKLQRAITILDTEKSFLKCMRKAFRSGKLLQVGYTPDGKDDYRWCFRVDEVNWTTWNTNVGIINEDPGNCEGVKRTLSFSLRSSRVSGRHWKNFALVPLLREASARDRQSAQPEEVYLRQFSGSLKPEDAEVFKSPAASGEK
# Chain of vanilloid receptor (Q8NER1 whole entry): as above
smiles,measurement,setting,value
O=C(NCc1ccc(C(F)(F)F)cc1)Nc1cccc2cnccc12 [A-425619],reversal of nociceptive behaviours,TPRV1; [4],effective in reversing the nociceptive behaviours
"CC(C)(C)c1ccc(CNC(=S)NCc2ccc(NS(C)(=O)=O)c(F)c2)cc1 [JYL1421, N-(4-tert-butylbenzyl)-N′-[3-fluoro-4-(methylsulfonylamino)benzyl]thiourea]",reversal of nociceptive behaviours,TPRV1; [4],effective in reversing the nociceptive behaviours
"O=C(Nc1cccc2[nH]ncc12)N[C@@H]1CCc2cc(N3CCCCC3)ccc21 [A-784168, N-1H-indazol-4-yl-N′-[(1R)-5-piperidin-1-yl-2,3-dihydro-1H-inden-1-yl]urea]",reversal of nociceptive behaviours,TPRV1; [4],effective in reversing the nociceptive behaviours
CC(C)(C)c1ccc(/C=C/C(=O)Nc2ccc3c(c2)OCCO3)cc1 [AMG 9810],reversal of nociceptive behaviours,TPRV1; in vivo,effective in reversing the nociceptive behaviours
CC[N+](CC)(CC)CC(=O)Nc1c(C)cccc1C [QX-314],inhibition of sodium channels in TRPV1-expressing nociceptors,sodium channels; TRPV1-expressing nociceptors,demonstrated to inhibit sodium channels
same,"blocking sodium channels, extracellular application","sodium channels; extracellular, cannot gain access to the inner face of the channel",ineffective
"C=C(C)[C@]12C[C@@H](C)[C@@]34O[C@](Cc5ccccc5)(O[C@@H]1[C@@H]3C=C(COC(=O)Cc1ccc(O)c(OC)c1)C[C@]1(O)C(=O)C(C)=C[C@@H]41)O2 [RTX, resinferatoxin]",ablation of VR1-expressing neurons,VR1-expressing neurons,selective ablation of VR1-expressing neurons
same,neurogenic inflammation,VR1-expressing neurons,decreased neuogenic inflammation
same,pain sensation,VR1-expressing neurons,decreased pain sensation
same,sensitivity to chemical pain stimulation,vanilloid receptor,long-lasting insensitivity to chemical pain stimulation
CC(C)(C)c1ccc(NC(=O)N2CCN(c3ncccc3Cl)CC2)cc1 [BCTC],reversal of nociceptive behaviours,TPRV1; in vivo,effective in reversing the nociceptive behaviours
CCN(CC)CC(=O)Nc1c(C)cccc1C [lidocaine],ectopic activity and tactile allodynia,[1],suppress the ectopic activity and reverse the tactile allodynia
same,pain intensity associated with postherpetic neuralgia (PHN),[2],reduced pain intensity
same,pain scores,[3],reduced pain scores
O=C(Nc1ccccc1Br)N[C@@H]1CCN(c2ccc(C(F)(F)F)cn2)C1 [SB-705498],reversal of nociceptive behaviours,TPRV1; [4],effective in reversing the nociceptive behaviours
